Among the data in the supplement of paper PMC11368000 are POD vs vehicle values, retold here.

Structures are written as SMILES.

One test deals with 1392 (donor line of iPSC-derived cardiomyocytes). The experiment in a line: POD (EC05) for increase in Ca2+ transient decay-to-rise ratio (QT prolongation) vs vehicle; higher = less potent (higher point of departure). Conditions: exposure time: 90 min. The method in brief: (§1)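 Ca2+ flux in human iPSC-derived cardiomyocytes from 16 donors was recorded on a FLIPR Tetra for 100 s before and after a 90 min exposure at 37 °C to 0.1, 1, 10 and 100 µM (final, 0.5% DMSO). Donor-specific points of departure came from hierarchical Bayesian Hill fits to vehicle-normalised beat frequency, decay-to-rise ratio or peak frequency. A 5% change served as threshold, except for peak frequency, where it was a 95% loss.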
As for `NC(=O)C(F)(F)C(F)(F)C(F)(F)C(F)(F)C(F)(F)C(F)(F)C(F)(F)F` [Perfluorooctanamide], the POD vs vehicle is greater than 100 µM.

Regarding `N=C(N)C(F)(F)C(F)(F)C(F)(F)C(F)(F)C(F)(F)C(F)(F)C(F)(F)F` [Perfluorooctanamidine], the POD vs vehicle is greater than 100 µM.

Another test deals with 11235 (donor line of iPSC-derived cardiomyocytes). The test is described as above. To be noted: exposure time: 90 min. The method in brief: as §1
For the compound `NC(=O)C(F)(F)C(F)(F)C(F)(F)C(F)F`, the POD vs vehicle was greater than 100 µM.

`OCC(O)CC(F)(F)C(F)(F)C(F)(F)C(F)(F)C(F)(F)C(F)(F)C(F)(F)C(F)(F)F` (centres undefined) [1-(Perfluorofluorooctyl)propane-2,3-diol]: the POD vs vehicle is greater than 100 µM.

For `CC(O)C(F)(F)C(F)(F)F` (centres undefined) [1-Pentafluoroethylethanol], the POD vs vehicle was greater than 100 µM.

Consider `OCC(F)(F)C(F)(F)C(F)(F)C(F)F` [1H,1H,5H-Perfluoropentanol], for which the POD vs vehicle is greater than 100 µM.

On to `O=S(=O)(OCC(F)(F)F)C(F)(F)C(F)(F)C(F)(F)C(F)(F)F` [2,2,2-Trifluoroethyl_perfluorobutanesulfonate], for which the POD vs vehicle is greater than 100 µM.

On to `O=C(O)C(F)(F)C(F)(F)C(F)F` [2,2,3,3,4,4-Hexafluorobutanoic_acid], for which the POD vs vehicle is greater than 100 µM.

For the compound `NC(O)(C(F)(F)F)C(F)(F)F` [2-Aminohexafluoropropan-2-ol], the POD vs vehicle is greater than 100 µM.

Take `O=C(O)CCC(F)(F)C(F)(F)C(F)(F)C(F)(F)C(F)(F)F` [2H,2H,3H,3H-Perfluorooctanoic_acid]: the POD vs vehicle was greater than 100 µM.

On to `O=C(O)C=C(C(F)(F)F)C(F)(F)F` [3,3-Bis(trifluoromethyl)-2-propenoic_acid], for which the POD vs vehicle was greater than 100 µM.

On to `O=C(O)C=CC(F)(C(F)(F)F)C(F)(F)F` [3-(Perfluoroisopropyl)-2-propenoic_acid], for which the POD vs vehicle was greater than 100 µM.

In the case of `O=C(O)CCC(F)(F)C(F)(F)C(F)(F)C(F)(F)C(F)(F)C(F)(F)C(F)(F)F` [3-Perfluoroheptylpropanoic_acid], the POD vs vehicle was greater than 100 µM.

In the case of `O=C(O)CCC(F)(F)C(F)(F)C(F)(F)F` [3:3 Fluorotelomer carboxylic acid], the POD vs vehicle was greater than 100 µM.

Regarding `O=C(CC(=O)C(F)(F)C(F)(F)F)C(F)(F)F` [3H,3H-Perfluoro-2,4-hexanedione], the POD vs vehicle is greater than 100 µM.

Turning to `OCCC(F)(F)C(F)(F)C(F)(F)C(F)(F)F` [4:2 Fluorotelomer alcohol], the POD vs vehicle is greater than 100 µM.

Regarding `O=S(=O)(O)CCC(F)(F)C(F)(F)C(F)(F)C(F)(F)F` [4:2 Fluorotelomer sulfonic acid], the POD vs vehicle was greater than 100 µM.

`OCC(F)(F)C(F)(F)C(F)(F)C(F)(F)C(F)(F)C(F)(F)F` [6:1 Fluorotelomer alcohol]: the POD vs vehicle was greater than 100 µM.

For the compound `NC(=O)C(F)(F)C(F)(F)C(F)(F)F` [Heptafluorobutyramide], the POD vs vehicle was greater than 100 µM.

For the compound `CN(CCO)S(=O)(=O)C(F)(F)C(F)(F)C(F)(F)C(F)(F)C(F)(F)C(F)(F)C(F)(F)C(F)(F)F` [N-Methyl-N-(2-hydroxyethyl)perfluorooctanesulfonamide], the POD vs vehicle is greater than 100 µM.

With `NC(=O)C(F)(F)C(F)(F)C(F)(F)C(F)(F)C(F)(F)C(F)(F)C(F)(F)F` [Perfluorooctanamide], the POD vs vehicle was greater than 100 µM.

Turning to `N=C(N)C(F)(F)C(F)(F)C(F)(F)C(F)(F)C(F)(F)C(F)(F)C(F)(F)F` [Perfluorooctanamidine], the POD vs vehicle is greater than 100 µM.

A further test has as its system 30171 (donor line of iPSC-derived cardiomyocytes). The test is described as above. Conditions: exposure time: 90 min. The method in brief: as §1
As to `NC(=O)C(F)(F)C(F)(F)C(F)(F)C(F)F`, the POD vs vehicle stood at 17 µM.

Consider `OCC(O)CC(F)(F)C(F)(F)C(F)(F)C(F)(F)C(F)(F)C(F)(F)C(F)(F)C(F)(F)F` (centres undefined) [1-(Perfluorofluorooctyl)propane-2,3-diol], for which the POD vs vehicle was greater than 100 µM.

In the case of `CC(O)C(F)(F)C(F)(F)F` (centres undefined) [1-Pentafluoroethylethanol], the POD vs vehicle was greater than 100 µM.

As to `OCC(F)(F)C(F)(F)C(F)(F)C(F)F` [1H,1H,5H-Perfluoropentanol], the POD vs vehicle was greater than 100 µM.

As for `O=S(=O)(OCC(F)(F)F)C(F)(F)C(F)(F)C(F)(F)C(F)(F)F` [2,2,2-Trifluoroethyl_perfluorobutanesulfonate], the POD vs vehicle is greater than 100 µM.

For `O=C(O)C(F)(F)C(F)(F)C(F)F` [2,2,3,3,4,4-Hexafluorobutanoic_acid], the POD vs vehicle was greater than 100 µM.

As to `NC(O)(C(F)(F)F)C(F)(F)F` [2-Aminohexafluoropropan-2-ol], the POD vs vehicle is greater than 100 µM.

With `O=C(O)CCC(F)(F)C(F)(F)C(F)(F)C(F)(F)C(F)(F)F` [2H,2H,3H,3H-Perfluorooctanoic_acid], the POD vs vehicle is greater than 100 µM.

`O=C(O)C=C(C(F)(F)F)C(F)(F)F` [3,3-Bis(trifluoromethyl)-2-propenoic_acid]: the POD vs vehicle was greater than 100 µM.

With `O=C(O)C=CC(F)(C(F)(F)F)C(F)(F)F` [3-(Perfluoroisopropyl)-2-propenoic_acid], the POD vs vehicle was greater than 100 µM.

In the case of `O=C(O)CCC(F)(F)C(F)(F)C(F)(F)C(F)(F)C(F)(F)C(F)(F)C(F)(F)F` [3-Perfluoroheptylpropanoic_acid], the POD vs vehicle is greater than 100 µM.

For the compound `O=C(O)CCC(F)(F)C(F)(F)C(F)(F)F` [3:3 Fluorotelomer carboxylic acid], the POD vs vehicle was greater than 100 µM.

In the case of `O=C(CC(=O)C(F)(F)C(F)(F)F)C(F)(F)F` [3H,3H-Perfluoro-2,4-hexanedione], the POD vs vehicle was greater than 100 µM.

Consider `OCCC(F)(F)C(F)(F)C(F)(F)C(F)(F)F` [4:2 Fluorotelomer alcohol], for which the POD vs vehicle was greater than 100 µM.

For `O=S(=O)(O)CCC(F)(F)C(F)(F)C(F)(F)C(F)(F)F` [4:2 Fluorotelomer sulfonic acid], the POD vs vehicle is greater than 100 µM.

Take `OCC(F)(F)C(F)(F)C(F)(F)C(F)(F)C(F)(F)C(F)(F)F` [6:1 Fluorotelomer alcohol]: the POD vs vehicle is greater than 100 µM.

For `NC(=O)C(F)(F)C(F)(F)C(F)(F)F` [Heptafluorobutyramide], the POD vs vehicle was greater than 100 µM.

As to `CN(CCO)S(=O)(=O)C(F)(F)C(F)(F)C(F)(F)C(F)(F)C(F)(F)C(F)(F)C(F)(F)C(F)(F)F` [N-Methyl-N-(2-hydroxyethyl)perfluorooctanesulfonamide], the POD vs vehicle was greater than 100 µM.

With `NC(=O)C(F)(F)C(F)(F)C(F)(F)C(F)(F)C(F)(F)C(F)(F)C(F)(F)F` [Perfluorooctanamide], the POD vs vehicle was greater than 100 µM.

Take `N=C(N)C(F)(F)C(F)(F)C(F)(F)C(F)(F)C(F)(F)C(F)(F)C(F)(F)F` [Perfluorooctanamidine]: the POD vs vehicle is greater than 100 µM.

A further test deals with 20032 (donor line of iPSC-derived cardiomyocytes). The description is as above. Conditions: exposure time: 90 min. In a few lines: as §1
With `NC(=O)C(F)(F)C(F)(F)C(F)(F)C(F)F`, the POD vs vehicle turned out to be 0.131 µM.

`OCC(O)CC(F)(F)C(F)(F)C(F)(F)C(F)(F)C(F)(F)C(F)(F)C(F)(F)C(F)(F)F` (centres undefined) [1-(Perfluorofluorooctyl)propane-2,3-diol]: the POD vs vehicle is greater than 100 µM.

For `CC(O)C(F)(F)C(F)(F)F` (centres undefined) [1-Pentafluoroethylethanol], the POD vs vehicle is greater than 100 µM.

On to `OCC(F)(F)C(F)(F)C(F)(F)C(F)F` [1H,1H,5H-Perfluoropentanol], for which the POD vs vehicle is greater than 100 µM.

As to `O=S(=O)(OCC(F)(F)F)C(F)(F)C(F)(F)C(F)(F)C(F)(F)F` [2,2,2-Trifluoroethyl_perfluorobutanesulfonate], the POD vs vehicle is greater than 100 µM.

For `O=C(O)C(F)(F)C(F)(F)C(F)F` [2,2,3,3,4,4-Hexafluorobutanoic_acid], the POD vs vehicle is greater than 100 µM.

Turning to `NC(O)(C(F)(F)F)C(F)(F)F` [2-Aminohexafluoropropan-2-ol], the POD vs vehicle was greater than 100 µM.
